What was measured:
[1] = molecular target: ERK5/MAPK7 (Homo sapiens, UniProt Q13164); conditions: 1 μM; Run 1, Run 2
[2] = molecular target: c-Kit (Homo sapiens, UniProt P10721); assay: biochemical; conditions: read-out: % enzyme activity, 1 μM; Run 1, Run 2
[3] = molecular target: T1, EPHA6 (Homo sapiens, UniProt Q9UF33); conditions: 1 μM; Run 1, Run 2
T1 sequence (Q9UF33 23-1036): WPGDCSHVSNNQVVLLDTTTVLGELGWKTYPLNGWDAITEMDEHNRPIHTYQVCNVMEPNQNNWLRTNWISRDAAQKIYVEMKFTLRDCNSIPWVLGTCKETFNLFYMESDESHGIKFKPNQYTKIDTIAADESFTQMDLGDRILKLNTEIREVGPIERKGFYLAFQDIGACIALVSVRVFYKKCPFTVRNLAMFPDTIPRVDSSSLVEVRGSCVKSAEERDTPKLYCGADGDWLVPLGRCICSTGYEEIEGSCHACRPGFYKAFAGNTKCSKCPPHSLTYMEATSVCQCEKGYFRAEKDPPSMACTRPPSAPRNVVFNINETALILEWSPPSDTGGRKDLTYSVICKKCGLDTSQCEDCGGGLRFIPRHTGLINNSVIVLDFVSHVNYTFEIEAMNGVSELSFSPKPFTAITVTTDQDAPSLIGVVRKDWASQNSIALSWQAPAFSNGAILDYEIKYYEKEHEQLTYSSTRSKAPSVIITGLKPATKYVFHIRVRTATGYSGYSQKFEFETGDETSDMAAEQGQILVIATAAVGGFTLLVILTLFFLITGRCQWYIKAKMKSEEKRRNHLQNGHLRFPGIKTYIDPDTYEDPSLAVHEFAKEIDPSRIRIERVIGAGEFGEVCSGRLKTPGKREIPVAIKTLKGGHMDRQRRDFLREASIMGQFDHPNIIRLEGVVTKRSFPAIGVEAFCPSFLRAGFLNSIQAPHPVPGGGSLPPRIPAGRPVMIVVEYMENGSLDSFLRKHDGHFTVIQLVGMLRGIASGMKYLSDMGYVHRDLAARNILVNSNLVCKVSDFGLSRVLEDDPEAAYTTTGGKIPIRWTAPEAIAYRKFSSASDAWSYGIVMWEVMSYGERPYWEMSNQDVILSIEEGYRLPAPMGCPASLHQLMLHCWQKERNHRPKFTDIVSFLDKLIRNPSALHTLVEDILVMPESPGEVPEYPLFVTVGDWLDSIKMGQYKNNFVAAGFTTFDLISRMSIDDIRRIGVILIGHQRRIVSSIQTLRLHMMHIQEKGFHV

[4] = molecular target: JAK2 (Homo sapiens, UniProt O60674); assay: biochemical; conditions: read-out: % enzyme activity, 1 μM; Run 1, Run 2
[5] = molecular target: ABL1 (Homo sapiens, UniProt P00519); conditions: 1 μM; Run 1, Run 2
[6] = molecular target: CDK1/cyclin A (Homo sapiens, UniProt P06493); conditions: 1 μM; Run 1, Run 2
[7] = molecular target: CYP2D6
[8] = molecular target: TYK2 (Homo sapiens, UniProt P29597); conditions: 1 μM; Run 1, Run 2
TYK2, sequence (P29597 whole entry, species assumed): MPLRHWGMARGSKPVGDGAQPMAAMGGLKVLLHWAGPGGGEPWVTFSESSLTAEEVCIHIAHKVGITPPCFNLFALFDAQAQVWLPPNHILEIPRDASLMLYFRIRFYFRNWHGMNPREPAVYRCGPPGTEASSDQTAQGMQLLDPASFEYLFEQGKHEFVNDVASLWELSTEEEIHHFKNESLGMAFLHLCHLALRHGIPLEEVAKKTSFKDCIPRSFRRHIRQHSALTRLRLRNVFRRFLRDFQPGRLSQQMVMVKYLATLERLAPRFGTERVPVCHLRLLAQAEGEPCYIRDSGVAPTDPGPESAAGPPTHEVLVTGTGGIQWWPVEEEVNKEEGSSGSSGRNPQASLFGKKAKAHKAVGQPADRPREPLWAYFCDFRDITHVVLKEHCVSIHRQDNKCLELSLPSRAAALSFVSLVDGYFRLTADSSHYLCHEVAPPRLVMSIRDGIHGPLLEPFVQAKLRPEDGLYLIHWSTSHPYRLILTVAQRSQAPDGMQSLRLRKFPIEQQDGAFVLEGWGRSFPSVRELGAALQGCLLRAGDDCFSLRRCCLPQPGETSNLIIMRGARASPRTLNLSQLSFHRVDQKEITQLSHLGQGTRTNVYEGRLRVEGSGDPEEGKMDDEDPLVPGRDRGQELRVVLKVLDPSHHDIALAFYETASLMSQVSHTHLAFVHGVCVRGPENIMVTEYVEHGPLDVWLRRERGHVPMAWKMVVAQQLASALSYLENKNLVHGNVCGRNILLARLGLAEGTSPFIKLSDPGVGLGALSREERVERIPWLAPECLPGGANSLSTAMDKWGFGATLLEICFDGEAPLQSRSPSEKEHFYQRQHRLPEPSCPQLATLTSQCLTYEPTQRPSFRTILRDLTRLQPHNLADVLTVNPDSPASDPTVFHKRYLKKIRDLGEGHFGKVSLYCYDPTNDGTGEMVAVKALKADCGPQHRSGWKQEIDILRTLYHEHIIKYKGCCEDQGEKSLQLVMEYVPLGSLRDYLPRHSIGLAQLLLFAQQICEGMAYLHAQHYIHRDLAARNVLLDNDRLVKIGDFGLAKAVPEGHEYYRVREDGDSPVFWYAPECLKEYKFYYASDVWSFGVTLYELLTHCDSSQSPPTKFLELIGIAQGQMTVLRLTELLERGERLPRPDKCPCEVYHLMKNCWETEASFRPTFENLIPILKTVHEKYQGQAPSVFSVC

[9] = molecular target: CK1d (Homo sapiens, UniProt P48730); assay: biochemical; conditions: read-out: % enzyme activity, 1 μM; Run 1, Run 2
CK1d, sequence (P48730 whole entry): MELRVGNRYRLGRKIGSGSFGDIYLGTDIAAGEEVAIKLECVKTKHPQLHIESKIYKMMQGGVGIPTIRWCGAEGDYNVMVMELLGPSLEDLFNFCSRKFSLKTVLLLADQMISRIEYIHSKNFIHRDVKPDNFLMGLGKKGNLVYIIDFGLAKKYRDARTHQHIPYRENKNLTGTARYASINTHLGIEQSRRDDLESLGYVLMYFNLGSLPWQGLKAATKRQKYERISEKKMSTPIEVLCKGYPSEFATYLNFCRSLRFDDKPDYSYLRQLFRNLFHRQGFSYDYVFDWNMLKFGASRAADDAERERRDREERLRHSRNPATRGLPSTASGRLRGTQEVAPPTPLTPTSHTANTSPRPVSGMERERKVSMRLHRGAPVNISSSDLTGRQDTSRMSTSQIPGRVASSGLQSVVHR

[10] = molecular target: ERN1/IRE1 (Homo sapiens, UniProt O75460); conditions: 1 μM; Run 1, Run 2
ERN1/IRE1, sequence (O75460 19-977): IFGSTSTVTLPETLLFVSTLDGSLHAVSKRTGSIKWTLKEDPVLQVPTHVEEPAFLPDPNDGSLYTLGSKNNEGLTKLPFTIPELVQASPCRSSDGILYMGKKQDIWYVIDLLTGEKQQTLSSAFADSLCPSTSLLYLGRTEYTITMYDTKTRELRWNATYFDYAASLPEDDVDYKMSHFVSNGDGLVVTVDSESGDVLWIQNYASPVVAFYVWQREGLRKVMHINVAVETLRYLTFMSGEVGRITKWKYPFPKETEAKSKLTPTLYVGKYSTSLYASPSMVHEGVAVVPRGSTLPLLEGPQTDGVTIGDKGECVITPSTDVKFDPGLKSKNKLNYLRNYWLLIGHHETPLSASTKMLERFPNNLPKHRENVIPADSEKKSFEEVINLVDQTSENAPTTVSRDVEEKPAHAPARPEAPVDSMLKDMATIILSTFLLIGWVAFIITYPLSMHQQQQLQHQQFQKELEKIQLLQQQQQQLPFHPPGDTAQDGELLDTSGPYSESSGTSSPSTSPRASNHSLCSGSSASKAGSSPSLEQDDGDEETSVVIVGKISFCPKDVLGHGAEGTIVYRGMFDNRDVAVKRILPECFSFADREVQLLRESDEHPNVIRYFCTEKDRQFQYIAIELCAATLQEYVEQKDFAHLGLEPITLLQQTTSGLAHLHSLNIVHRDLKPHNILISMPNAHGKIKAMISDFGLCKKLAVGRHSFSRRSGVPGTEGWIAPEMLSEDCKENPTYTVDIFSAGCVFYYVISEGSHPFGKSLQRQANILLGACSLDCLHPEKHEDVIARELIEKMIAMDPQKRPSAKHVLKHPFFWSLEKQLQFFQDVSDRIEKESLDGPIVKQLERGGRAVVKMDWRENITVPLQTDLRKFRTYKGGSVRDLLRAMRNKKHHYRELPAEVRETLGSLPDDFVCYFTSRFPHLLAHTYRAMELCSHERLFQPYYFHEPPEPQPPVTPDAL

[11] = molecular target: TRKB (Homo sapiens, UniProt Q16620); conditions: 1 μM; Run 1, Run 2
TRKB, sequence (Q16620 32-822): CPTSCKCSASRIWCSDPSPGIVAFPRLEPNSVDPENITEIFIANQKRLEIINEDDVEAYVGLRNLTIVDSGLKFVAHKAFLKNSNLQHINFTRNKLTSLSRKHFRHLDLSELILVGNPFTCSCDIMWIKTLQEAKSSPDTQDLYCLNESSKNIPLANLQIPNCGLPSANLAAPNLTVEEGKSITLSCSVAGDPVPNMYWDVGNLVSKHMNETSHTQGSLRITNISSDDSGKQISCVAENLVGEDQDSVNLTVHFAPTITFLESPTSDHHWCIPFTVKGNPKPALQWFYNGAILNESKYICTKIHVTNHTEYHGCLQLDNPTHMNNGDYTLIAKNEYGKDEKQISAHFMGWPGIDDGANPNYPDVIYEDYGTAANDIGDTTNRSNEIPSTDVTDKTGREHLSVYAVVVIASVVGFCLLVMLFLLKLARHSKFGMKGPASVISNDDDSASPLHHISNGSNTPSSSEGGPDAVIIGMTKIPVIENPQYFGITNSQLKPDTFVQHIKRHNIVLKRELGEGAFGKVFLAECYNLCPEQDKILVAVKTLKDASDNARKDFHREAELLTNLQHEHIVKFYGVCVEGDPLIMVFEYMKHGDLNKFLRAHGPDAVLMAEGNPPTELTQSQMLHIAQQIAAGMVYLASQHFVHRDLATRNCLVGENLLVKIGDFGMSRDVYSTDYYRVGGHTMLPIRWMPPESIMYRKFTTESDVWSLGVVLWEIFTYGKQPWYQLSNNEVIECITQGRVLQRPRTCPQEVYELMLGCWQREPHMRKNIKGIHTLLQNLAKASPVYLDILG

[12] = molecular target: T2, MYO3b (Homo sapiens, UniProt Q8WXR4); assay: biochemical; conditions: read-out: % enzyme activity, 1 μM; Run 1, Run 2
T2 sequence (Q8WXR4 1-1341): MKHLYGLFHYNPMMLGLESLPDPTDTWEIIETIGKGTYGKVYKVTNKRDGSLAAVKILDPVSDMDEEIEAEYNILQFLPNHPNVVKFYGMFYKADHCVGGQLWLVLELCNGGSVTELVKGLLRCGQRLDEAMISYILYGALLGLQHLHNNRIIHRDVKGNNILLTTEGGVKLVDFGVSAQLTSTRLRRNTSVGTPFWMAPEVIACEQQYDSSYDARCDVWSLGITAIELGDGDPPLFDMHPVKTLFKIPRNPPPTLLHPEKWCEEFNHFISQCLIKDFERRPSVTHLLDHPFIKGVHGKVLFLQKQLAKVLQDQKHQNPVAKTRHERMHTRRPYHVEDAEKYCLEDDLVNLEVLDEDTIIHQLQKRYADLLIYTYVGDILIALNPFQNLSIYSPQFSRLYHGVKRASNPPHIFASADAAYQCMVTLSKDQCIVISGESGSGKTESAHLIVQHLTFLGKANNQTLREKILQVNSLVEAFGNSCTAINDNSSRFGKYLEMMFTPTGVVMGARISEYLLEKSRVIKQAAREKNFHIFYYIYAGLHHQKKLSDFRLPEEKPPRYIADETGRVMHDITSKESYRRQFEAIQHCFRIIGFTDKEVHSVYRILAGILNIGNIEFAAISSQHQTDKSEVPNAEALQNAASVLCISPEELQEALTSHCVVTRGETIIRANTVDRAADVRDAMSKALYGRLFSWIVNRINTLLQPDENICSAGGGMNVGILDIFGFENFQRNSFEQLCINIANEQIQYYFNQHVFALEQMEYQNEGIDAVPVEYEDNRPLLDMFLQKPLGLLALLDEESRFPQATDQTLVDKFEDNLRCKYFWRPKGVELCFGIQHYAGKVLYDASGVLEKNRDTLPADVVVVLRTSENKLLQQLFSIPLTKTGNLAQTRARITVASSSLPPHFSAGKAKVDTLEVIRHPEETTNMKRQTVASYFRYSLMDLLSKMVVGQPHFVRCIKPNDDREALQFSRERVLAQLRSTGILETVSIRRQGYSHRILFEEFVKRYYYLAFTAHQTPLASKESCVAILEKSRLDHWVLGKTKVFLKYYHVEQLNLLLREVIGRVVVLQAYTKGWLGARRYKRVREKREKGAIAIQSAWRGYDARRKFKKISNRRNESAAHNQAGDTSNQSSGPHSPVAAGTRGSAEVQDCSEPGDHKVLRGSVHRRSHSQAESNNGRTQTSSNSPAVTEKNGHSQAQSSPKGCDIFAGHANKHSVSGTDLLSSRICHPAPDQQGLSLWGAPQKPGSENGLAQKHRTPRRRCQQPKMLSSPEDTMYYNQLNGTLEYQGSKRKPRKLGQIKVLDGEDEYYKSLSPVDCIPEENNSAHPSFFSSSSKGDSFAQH

[13] = molecular target: STK32B/YANK2 (Homo sapiens, UniProt Q9NY57); assay: biochemical; conditions: read-out: % enzyme activity, 1 μM; Run 1, Run 2
STK32B/YANK2, sequence (Q9NY57 whole entry): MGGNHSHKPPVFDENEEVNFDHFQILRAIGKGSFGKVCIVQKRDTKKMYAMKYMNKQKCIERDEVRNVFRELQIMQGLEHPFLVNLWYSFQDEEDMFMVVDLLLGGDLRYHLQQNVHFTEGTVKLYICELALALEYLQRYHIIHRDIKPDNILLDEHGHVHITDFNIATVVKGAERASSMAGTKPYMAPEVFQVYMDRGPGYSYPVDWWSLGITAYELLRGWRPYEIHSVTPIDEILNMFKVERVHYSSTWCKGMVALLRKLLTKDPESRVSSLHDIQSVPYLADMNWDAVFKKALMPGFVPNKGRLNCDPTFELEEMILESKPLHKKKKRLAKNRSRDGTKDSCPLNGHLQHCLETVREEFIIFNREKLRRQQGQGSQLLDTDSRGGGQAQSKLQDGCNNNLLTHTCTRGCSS

c-Kit, sequence (P10721 26-976): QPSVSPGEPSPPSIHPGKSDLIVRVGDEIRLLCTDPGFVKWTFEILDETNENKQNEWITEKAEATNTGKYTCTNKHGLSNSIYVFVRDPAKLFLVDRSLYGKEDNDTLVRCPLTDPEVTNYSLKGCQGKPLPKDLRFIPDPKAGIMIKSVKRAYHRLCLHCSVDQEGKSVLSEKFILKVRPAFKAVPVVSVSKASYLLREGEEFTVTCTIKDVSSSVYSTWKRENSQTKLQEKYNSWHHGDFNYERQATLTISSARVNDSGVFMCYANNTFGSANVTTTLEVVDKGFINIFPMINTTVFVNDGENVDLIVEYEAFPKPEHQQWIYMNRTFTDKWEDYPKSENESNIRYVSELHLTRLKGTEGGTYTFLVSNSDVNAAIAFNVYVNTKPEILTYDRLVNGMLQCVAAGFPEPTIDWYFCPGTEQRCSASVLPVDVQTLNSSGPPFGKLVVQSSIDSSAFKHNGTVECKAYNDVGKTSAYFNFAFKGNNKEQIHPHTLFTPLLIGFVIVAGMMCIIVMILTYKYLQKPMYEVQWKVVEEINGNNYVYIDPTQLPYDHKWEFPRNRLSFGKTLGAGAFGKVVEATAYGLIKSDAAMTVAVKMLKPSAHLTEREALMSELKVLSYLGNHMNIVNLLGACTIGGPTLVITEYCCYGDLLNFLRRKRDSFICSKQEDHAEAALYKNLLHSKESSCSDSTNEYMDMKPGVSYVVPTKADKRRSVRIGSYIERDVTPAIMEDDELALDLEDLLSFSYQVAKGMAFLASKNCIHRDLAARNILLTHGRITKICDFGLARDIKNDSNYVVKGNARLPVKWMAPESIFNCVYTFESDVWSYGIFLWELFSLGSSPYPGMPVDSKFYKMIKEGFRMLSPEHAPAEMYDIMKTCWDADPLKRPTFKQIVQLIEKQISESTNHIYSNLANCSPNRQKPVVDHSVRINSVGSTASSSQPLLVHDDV

Compound: COc1cc(-c2cncc(-c3ccc(N4CCN(C)CC4)cc3)c2C)cc(F)c1C(N)=O [Compound 26a, 2-Fluoro-6-methoxy-4-(4-methyl-5-(4-(4-methylpiperazin-1-yl)phenyl)pyridin-3-yl)benzamide]
- % enzyme activity [1]: 92.77%
- remaining activity at 1 µM [2]: 74.1%
- % enzyme activity [3]: 103.54%
- remaining activity at 1 µM [4]: 93.5%
- % enzyme activity [5]: 75.12%
- % enzyme activity [6]: 92.50%
- CYP inhibition [7]: > 50 µM
- % enzyme activity [8]: 91.37%
- remaining activity at 1 µM [9]: 98.1%
- % enzyme activity [10]: 92.47%
- % enzyme activity [11]: 99.94%
- remaining activity at 1 µM [12]: 81.6%
- remaining activity at 1 µM [13]: 87.6%

Compound: COc1cc(-c2cncc(-c3ccc(N4C[C@@H](C)N(C)[C@@H](C)C4)cc3)c2C)cc(F)c1C(N)=O [Compound 26c, 2-Fluoro-6-methoxy-4-(4-methyl-5-(4-((3R,5S)-3,4,5-trimethylpiperazin-1-yl)phenyl)pyridin-3-yl)benzamide]
- % enzyme activity [1]: 98.01%
- remaining activity at 1 µM [2]: 75.8%
- % enzyme activity [3]: 103.73%
- remaining activity at 1 µM [4]: 88.6%
- % enzyme activity [5]: 82.07%
- % enzyme activity [6]: 89.52%
- CYP inhibition [7]: > 50 µM
- % enzyme activity [8]: 99.47%
- remaining activity at 1 µM [9]: 108%
- % enzyme activity [10]: 90.44%
- % enzyme activity [11]: 98.44%
- remaining activity at 1 µM [12]: 86.5%
- remaining activity at 1 µM [13]: 98.2%
